The results in this text go back to patent publication US7601683B2, “Protein conformational isomers, methods of making, methods for using, compositions comprising and products made therewith” (Board of Regents of the University of Texas System, priority 2001, dated 2009).

The assay deals with tick anticoagulant peptide (TAP) (Ornithodoros moubata, UniProt P17726).

Where two headings read alike, the source gives them in different places.

tick anticoagulant peptide (TAP), sequence (P17726 whole entry): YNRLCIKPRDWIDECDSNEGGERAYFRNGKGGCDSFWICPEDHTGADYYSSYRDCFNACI

Regarding `[Cl-].[Na+]` [NaCl], the “reduction of the extent of denaturation of TAP by 8M urea” value (in the presence of 0.5 M NaCl) amounted to 23% and the “reduction of the extent of denaturation of TAP by 8M urea” value (in the presence of 1M NaCl) is on record as 50%. Where the note is “in the presence of urea, after addition of the protein stabilizer (FIG. 7 column 3)”, the “reversal of the structure of denatured TAP” value is reported as “converts back to the native structure”.
